The text below walks through data of ChEMBL document CHEMBL1201862, “PubChem BioAssay data set” (2004).

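Results reflect a 48-hour exposure of cells in 96-well plates to compound at five concentrations. GI50: concentration for 50% inhibition of growth.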 The source made the active and inactive calls. Rule as the data show it: active = GI50 up to about 1.1 µM and inactive = higher.

Some test systems named below: SK-MEL-5; OVCAR-4; SW-620; SF-268; HOP-92; 786-0; SK-OV-3; BT-549; MDA-MB-435; RXF 393; MDA-MB-231; OVCAR-5; A498; KM12; A549; UACC-257; SK-MEL-2; EKVX; NCI-H522.
What all share (assay): NCI tumour cell line growth inhibition, 48 h

For `CC(C)(C)c1cc(C(C)(C)C)c(SS(=O)(=O)O)c(O)c1O`, the GI50 in the assay on SK-MEL-5 is 34 µM (inactive); in the assay on OVCAR-4, 28.9 µM (inactive); in the assay on SW-620, 51.4 µM (inactive); in the assay on SF-268, 13.4 µM (inactive); in the assay on HOP-92, 84.1 µM (inactive); in the assay on 786-0, 63.7 µM (inactive). Moreover, the GI50 in the assay with SK-OV-3 is > 100 µM (inactive); in the assay on BT-549, > 100 µM (inactive); with MDA-MB-435, 23.9 µM (inactive); with RXF 393 it was 28.2 µM (inactive); with MDA-MB-231, 52.7 µM (inactive); in the assay with OVCAR-5, > 100 µM (inactive). For the same compound, the GI50 is 54.7 µM (inactive) with A498; 41.8 µM (inactive) in the assay with KM12; 9.33 µM (inactive) in the assay on A549; 79.1 µM (inactive) in the assay on UACC-257; 21.2 µM (inactive) with SK-MEL-2; 62.1 µM (inactive) in the assay with EKVX.

`Nn1c(Cc2ccccc2)n[nH]c1=O`: the GI50 in the assay on SK-MEL-5, in the assay with OVCAR-4, with SW-620, in the assay on SF-268, with 786-0 and in the assay on SK-OV-3 was > 100 µM (inactive) in each case. The GI50 with BT-549, in the assay with MDA-MB-435, in the assay with MDA-MB-231, with OVCAR-5, with NCI-H522 and in the assay on A498 was > 100 µM (inactive) throughout. Also, the GI50 in the assay with KM12, with A549, with UACC-257, with SK-MEL-2 and in the assay with EKVX was > 100 µM (inactive) throughout.

Turning to `CC1=CC(=O)/C(=C/NC(=S)NCCc2ccccc2)C(=O)O1`, the GI50 in the assay with SK-MEL-5 is > 100 µM (inactive); in the assay on OVCAR-4, > 100 µM (inactive); in the assay with SW-620, > 100 µM (inactive); in the assay with HOP-92 it was > 100 µM (inactive); with 786-0, 31 µM (inactive); with SK-OV-3, > 100 µM (inactive). Besides, the GI50 with BT-549 was 53.7 µM (inactive); in the assay with MDA-MB-435, > 100 µM (inactive); with MDA-MB-231, > 100 µM (inactive); in the assay with OVCAR-5 it was > 100 µM (inactive); with KM12, > 100 µM (inactive); with A549 it was > 100 µM (inactive). The GI50 in the assay with UACC-257, in the assay on SK-MEL-2 and with EKVX was > 100 µM (inactive) throughout.

Consider `C=C(C)C12CC(COC(=O)c3ccccc3)C34OC5(OC1C3C1OC1(CO)C(O)C1(O)C(OC(=O)c3ccccc3)C(C)C(C(C)CCCCCCC5O)C14)O2` (stereo not given), for which the GI50 in the assay on SK-MEL-5 was 11.6 µM (inactive); in the assay with OVCAR-4, > 100 µM (inactive); with SF-268 it was 52.1 µM (inactive); in the assay with HOP-92 it was > 100 µM (inactive); in the assay with 786-0 it was > 61.8 µM (inactive); with SK-OV-3 it was > 100 µM (inactive). Also, the GI50 with BT-549 is > 100 µM (inactive); in the assay with RXF 393, 52.6 µM (inactive); in the assay with MDA-MB-231, > 78.2 µM (inactive); in the assay with OVCAR-5, 88.7 µM (inactive); in the assay on NCI-H522 it was 46.5 µM (inactive); in the assay with A498, 60.4 µM (inactive). Further, the GI50 with KM12 is 40.8 µM (inactive); in the assay on UACC-257, 49.3 µM (inactive); with SK-MEL-2, > 100 µM (inactive); in the assay on EKVX, 58.6 µM (inactive).

Turning to `CC(=O)c1c(O)c(C)c(O)c(Cc2c(O)c3c(c(C(=O)/C=C/c4ccccc4)c2O)OC(C)(C)C=C3)c1O` [ROTTLERIN], the GI50 in the assay with SK-MEL-5 is 1.87 µM (inactive); in the assay with OVCAR-4, 2.79 µM (inactive); in the assay on SW-620 it was 3.19 µM (inactive); in the assay with SF-268 it was 3.61 µM (inactive); in the assay with HOP-92, 1.62 µM (inactive); in the assay with 786-0, 2.85 µM (inactive). Besides, the GI50 was 4.04 µM (inactive) with SK-OV-3; 2.51 µM (inactive) in the assay with BT-549; 2.74 µM (inactive) in the assay on MDA-MB-435; 2.08 µM (inactive) with MDA-MB-231; 3.56 µM (inactive) in the assay on OVCAR-5; 1.95 µM (inactive) in the assay with NCI-H522. Further, the GI50 in the assay with A498 is 1.95 µM (inactive); in the assay on KM12, 2.81 µM (inactive); with A549, 0.986 µM (active); with UACC-257 it was 2.21 µM (inactive); in the assay with SK-MEL-2, 1.34 µM (inactive); in the assay with EKVX it was 2.68 µM (inactive).

With `CCN(CC)CC1CN=C(N)O1` (stereo not given), the GI50 in the assay with SK-MEL-5, in the assay with OVCAR-4, with SW-620, in the assay with HOP-92, with 786-0 and with BT-549 was > 100 µM (inactive) throughout. Further, the GI50 in the assay on MDA-MB-435, with RXF 393, in the assay with MDA-MB-231, in the assay on OVCAR-5, with A498 and in the assay on KM12 was > 100 µM (inactive) throughout. Moreover, the GI50 with A549, in the assay on UACC-257, in the assay with SK-MEL-2 and in the assay with EKVX was > 100 µM (inactive) in each case.

On to `Cc1ccc(C2(c3ccc(F)cc3)OC(=O)c3ccccc32)c(O)c1` (stereo not given), for which the GI50 was 16.3 µM (inactive) in the assay on SK-MEL-5; 17 µM (inactive) in the assay with OVCAR-4; 13.6 µM (inactive) with SW-620; 19.5 µM (inactive) in the assay with SF-268; 16.6 µM (inactive) in the assay with HOP-92; 15.4 µM (inactive) in the assay with 786-0. The GI50 is 11.9 µM (inactive) in the assay with SK-OV-3; 19.7 µM (inactive) in the assay on BT-549; 12.4 µM (inactive) in the assay on MDA-MB-435; 17.9 µM (inactive) with MDA-MB-231; 14.4 µM (inactive) with OVCAR-5; 14.5 µM (inactive) with NCI-H522. Further, the GI50 was 19.6 µM (inactive) with A498; 15.5 µM (inactive) with KM12; 15.8 µM (inactive) in the assay on A549; 15.6 µM (inactive) with UACC-257; 14.7 µM (inactive) in the assay with SK-MEL-2; 16 µM (inactive) in the assay with EKVX.

In the case of `CC/C(=C/OC)P1(=O)OC(C)(C)CN1C(C)(C)C` (stereo not given), the GI50 in the assay with SK-MEL-5, with OVCAR-4, in the assay with SW-620, in the assay with SF-268, in the assay on 786-0 and in the assay on SK-OV-3 was > 100 µM (inactive) each time. In addition, the GI50 in the assay with BT-549, in the assay on MDA-MB-435, in the assay on MDA-MB-231, in the assay with OVCAR-5, in the assay on A498 and in the assay with KM12 was > 100 µM (inactive) each time. Besides, the GI50 in the assay on A549, with UACC-257, in the assay on SK-MEL-2 and in the assay on EKVX was > 100 µM (inactive) each time.

Turning to `CCOC(=O)C1(Cc2ccccc2)Cc2cc3c(cc2C1)CCC3`, the GI50 is 35.7 µM (inactive) with OVCAR-4; 28.6 µM (inactive) with SW-620; 52.4 µM (inactive) in the assay with SF-268; 38.1 µM (inactive) in the assay with 786-0; 35 µM (inactive) in the assay with SK-OV-3; 25.2 µM (inactive) with BT-549. The GI50 was 30.2 µM (inactive) in the assay with MDA-MB-435; 30.4 µM (inactive) in the assay with MDA-MB-231; 25.2 µM (inactive) in the assay with OVCAR-5; 30.3 µM (inactive) with NCI-H522; 49.4 µM (inactive) in the assay with A498; 31.9 µM (inactive) in the assay with KM12. The GI50 with A549 is 36.8 µM (inactive); with UACC-257, 40.7 µM (inactive); in the assay on SK-MEL-2, 12.8 µM (inactive); in the assay with EKVX it was 42.8 µM (inactive).
